The record followed here is patent US6958162B2, “Herbal composition for treating allergic disorders and method for making the same” (Industrial Technology Research Institute, priority 2003, dated 2005).

The test system of test [1] is inflammatory cells in the BAL fluids. Kind of test: Der p 2 induced allergic airway inflammation in mice: cell counts in BAL fluid. The conditions noted are these: DEX 1 μg/mouse/day, mean ± SEM. The test is classed as in vivo, Balb/c mice. The method, then:
(§1) Male Balb/c mice were obtained from the National Laboratory Breeding Research Center in Taiwan and were raised in a specific pathogen-free environment. These mice used were between 6 and 8 weeks of age. Groups of six mice were caged separately according to their treatments. Recombinant Dermatophoides pteronyssinus group 2 (Der p 2) was prepared from Dr. Tsai's lab and test drugs, Traditional Chinese Medicine A (TCM-A, or 1217A in FIGS. 7, 8, 9, and 10) and Traditional Chinese Medicine B (TCM-B, or 1217B in FIGS. 7, 8, 9, and 10) were prepared from the Biomedical Engineering Center Industrial Technology Research Institute, Hsinchu, Taiwan.
Mice were immunized by intraperitoneal (i.p.) injection of 1 μg/0.1 ml Der p 2 emulsified in 4 μg/0.062 ml aluminum hydroxide Al(OH)3 (Whitehall Lab Ltd, Punchbowel, Australia) on day 0 and day 7. After immunization, mice were fed with TCM for 3 weeks. Mice of different groups were fed with Dexamethasome (1 μg/mouse/day), TCM-A (20 mg/mouse/day), TCM-B (20 mg/mouse/day) or normal saline 500 μl/mouse/day. On days 28 and 35, mice were lightly anesthetized with an i.p. injection of 60 mg/kg of sodium pentobarbital (Sigma Chemical Co., St. Louis, Mo., USA) and intratracheally (i.t.) inoculated with 1 μg/50 μl of Der p 2. Twenty-four hours after the second i.t. inoculation, mice were sacrificed after pulmonary function measurement.
After pulmonary function measurement, bronchoalveolar lavage (BAL) was performed with the following procedure. Two separate injections of 1 ml sterile endotoxin-free saline were given into the lung via the trachea of each mouse. Approximately 1.8 ml of the bronchoalveolar lavage (BAL) fluid was recovered constantly. The BAL fluids were aspirated and stored at −70° C. until assay. After total leukocyte counting, a cytospin preparation of […] BAL fluid was stained with Liu stain (Tonyar Diagnostic Inc, Taipei County, Taiwan) and differential counts were performed on 200 cells. […] Blood samples were obtained via the orbital sinus and sera were collected and stored at −70° C. until assay.

For test [2], the system named is pulmonary function. Kind of test: Pulmonary function determination (barometric plethysmograph, methacholine) in Der p 2 allergic mice. The test is classed as in vivo, Balb/c mice. The settings on record: DEX 1 μg/mouse/day, TCM 20 mg/mouse/day; result in words. The method, then:
as §1, with “Taiwan. […]” for “Taiwan.”
Each mouse was placed inside a barometric plethysmograph (Buxco Electronics, Troy, N.Y.). […] The pressure signal was amplified, digitized via an A/D convert card, and sent to a computer with a BioSystem XA program (Buxco Electronics, Troy, N.Y.), which sampled and calculated desired respiratory parameters. […]
An aerosol was generated by placing a 5 ml saline or methacholine (1.56 to 50.00 mg/ml) solution in the cup of an ultrasonic nebulizer (DeVilbiss, Somerset, Pa.) and it was delivered via a connecting tube and a three-way connector to the animal chamber of the plethysmograph. […] At first, each mouse inhaled the saline aerosol for 3 mins and then the respiratory parameters were measured for 3 mins. […]

Test [3] has as its system IL-4 released from EL-4 cells. The test can be described thus: Measurement of IL-4 released from stimulated EL-4 cells (ELISA). The conditions noted are these: FIG. 3b, 3c. It is filed as cell-based, mouse. The procedure:
During the day of experiment, the herbal drug was diluted in the cell culture medium to the end point (0.5 μg/ml, 5 μg/ml, or as appropriate). The ability of each herbal composition and its mixtures to affect the production of IL-4, TNF-alpha, and cLT was measured.
The mouse thymoma cell lines, EL-4 were incubated with each composition or mixture for 2 hours before it was stimulated by 100 ng/ml of A23187 and PMA. Samples of tissue culture medium were collected at the end of 24 hours incubation and stored at −70 degrees C. prior to assay.
Cytokine measurements were carried out using the commercially available ELISA assay kit (R&D Systems, Minneapolis, Minn.) in accordance with the supplier's protocols. In brief, 100 μl of the assay buffer supplied was added to each of the wells of a micro-titer plate containing pre-bound anti-cytokine antibody, followed by 100 μl of a standard or sample solution, diluted appropriately for the concentration range measured. All incubations were carried out at 37 degrees C. After two hours incubation, the plates were washed four times with a wash buffer, and the second antibody, Detection Antibody, was added with 1:200 in Reagent Diluent to each well. The plates were sealed and incubated for 2 hours. […] Optical sensitivity was determined at 450 nm using a Molecular Devices of micro-titer plate reader.

For `C[C@@H]1C[C@H]2[C@@H]3CCC4=CC(=O)C=C[C@]4(C)[C@@]3(F)[C@@H](O)C[C@]2(C)[C@@]1(O)C(=O)CO` [DEX, Dexamethasone], in test [1] (BAL fluid, TCM 20 mg/mouse/day), the “Differential Counts, Eos” value is recorded as 3.2 ± 0.4 ×10^4/ml; the “Differential Counts, Lym” value is 9.4 ± 1.5 ×10^4/ml; the “Differential Counts, Macro” value is on record as 29.2 ± 4.4 ×10^4/ml; the “Differential Counts, Neu” value is on record as 6.6 ± 1.0 ×10^4/ml. Further, the “Total cell NO in BAL fluid” value in test [1] (fed 3 weeks, TCM-A or TCM-B 20 mg/mouse/day) is on record as 46.4 ± 2.2 ×10^4/ml. In addition, the “pulmonary function of allergic animals (methacholine from low dose to high dose)” value in test [2] is “can improve the pulmonary function”.

With `O=P([O-])([O-])[O-].O=P([O-])([O-])[O-].[Ca+2].[Ca+2].[Ca+2]` [Ca3(PO4)2], the “effect on IL-4 released from EL-4 cells (excipients and powder with excipients)” value in test [3] is “do not have any effect”.
